# Active and inactive are the calls of the source.
# Key:
# [1] = target: E3 ubiquitin-protein ligase Mdm2 (Homo sapiens, UniProt Q00987); experiment: enhancers of MDM2-luciferase reporter signal, concentration-effect titration, project on inhibitors of MDM2 ubiquitin ligase, cellular assay, luminescent readout, 384-well plate format (AID 1394); assay type: functional;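 note: MDM2 E3 inhibitors raise luminescence so EC50 is for signal enhancement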
# [2] = cytotoxicity in HEK-293T cells, dose response, cytotoxicity control for TCR NF-kB inhibitor project, luminescence, T-cell screen hits (AID 489026); assay type: functional, cell-based;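 note: cells exposed to compound about 14 hours before the viability readout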
# [3] = target: T1, Heat shock factor protein 1 (Mus musculus, UniProt P38532); experiment: HSF1 potentiators in luciferase reporter cells, confirmation, cell-based, NIH3T3, luminescence, dose retest (AID 435004); assay type: functional;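 note: stress induced by proteasome inhibitor MG132 added 30 min after compound; luciferase reporter driven by HSF1 response element in NIH3T3 cells; actives raise luminescence as potentiators of the MG132 stress response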
# T1 sequence (P38532 whole entry): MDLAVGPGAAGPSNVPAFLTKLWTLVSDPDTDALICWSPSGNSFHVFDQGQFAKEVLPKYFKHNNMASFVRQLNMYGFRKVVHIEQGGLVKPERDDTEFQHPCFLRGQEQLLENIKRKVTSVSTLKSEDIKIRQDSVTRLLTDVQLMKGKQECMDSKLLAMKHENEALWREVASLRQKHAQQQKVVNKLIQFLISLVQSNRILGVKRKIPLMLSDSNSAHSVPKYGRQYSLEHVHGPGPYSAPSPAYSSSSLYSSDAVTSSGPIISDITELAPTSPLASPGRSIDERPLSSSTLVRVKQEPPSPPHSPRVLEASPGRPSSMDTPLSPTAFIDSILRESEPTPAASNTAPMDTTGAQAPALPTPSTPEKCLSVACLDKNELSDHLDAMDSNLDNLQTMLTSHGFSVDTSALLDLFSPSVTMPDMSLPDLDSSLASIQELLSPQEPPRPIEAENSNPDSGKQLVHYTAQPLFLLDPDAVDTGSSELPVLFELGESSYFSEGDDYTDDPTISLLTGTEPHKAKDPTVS
# [4] = target: T2, Microphthalmia-associated transcription factor (Homo sapiens, UniProt O75030); experiment: TRPM1 promoter luciferase signal decrease, dose response, MITF inhibitor project, cell-based, SK-MEL-5, cherry-picked, set 3 (AID 493073); assay type: functional
# T2 sequence (O75030 whole entry): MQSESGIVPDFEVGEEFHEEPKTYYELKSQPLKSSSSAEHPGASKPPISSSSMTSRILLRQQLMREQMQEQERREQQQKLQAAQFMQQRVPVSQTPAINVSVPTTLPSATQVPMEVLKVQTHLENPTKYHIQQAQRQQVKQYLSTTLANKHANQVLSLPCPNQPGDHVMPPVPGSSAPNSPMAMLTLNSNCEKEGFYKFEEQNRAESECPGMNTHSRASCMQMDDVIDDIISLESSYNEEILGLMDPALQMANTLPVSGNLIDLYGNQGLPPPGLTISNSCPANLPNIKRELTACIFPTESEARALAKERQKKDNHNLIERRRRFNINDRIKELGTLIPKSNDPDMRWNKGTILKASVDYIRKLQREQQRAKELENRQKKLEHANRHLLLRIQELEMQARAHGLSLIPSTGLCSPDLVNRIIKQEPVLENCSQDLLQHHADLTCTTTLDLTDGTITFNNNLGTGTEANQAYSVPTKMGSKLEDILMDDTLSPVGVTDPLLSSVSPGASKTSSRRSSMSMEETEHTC
# A-375 [5] = experiment: MITF: Counter assay: A375 proliferation Measured in Cell-Based System Using Plate Reader - 2084-03_Inhibitor_Dose_DryPowder_Activity. [Related pubchem assays (depositor defined):AID488944]; assay type: functional; conditions: Homo sapiens
# [6] = Shn3 3'UTR reporter inhibitors, dose response, cell-based, Clone20 osteoblasts, firefly luciferase, cherry-picked (AID 624132); assay type: functional;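 note: firefly luciferase luminescence from reporter carrying the Shn3 3'UTR in osteoblasts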
# [7] = HepG2 cell cytotoxicity, dose response, cytotoxicity control for Shn3 inhibitor project, CellTiter-Glo, cherry-picked (AID 624134); assay type: functional, cell-based
# [8] = control 3'UTR Renilla luciferase suppression, dose response, counter-screen for Shn3 inhibitor project, cell-based, Clone20-Shn3RL, cherry-picked (AID 624133); assay type: functional
# HeLa = experiment: HeLa cell cytotoxicity, dose response, cytotoxicity control for MITF activator project, CellTiter-Glo luminescence, cherry-pick samples (AID 540259); assay type: functional, cell-based; conditions: Homo sapiens
# [9] = tested on: Streptococcus sp. 'group A'; experiment: growth inhibition of control SK(-) GAS strain, dose response, counter-screen for streptokinase expression inhibitor project, luminescence, kanamycin, BacTiterGlo, confirmation (AID 1900); assay type: functional, organism-based
# Streptokinase A = target: T3, Streptokinase A (Streptococcus pyogenes serotype M1, UniProt P10520); experiment: S. pyogenes streptokinase expression inhibitors, potency, dose response, plasminogen activation absorbance, OD405 (AID 1914); assay type: functional, Streptococcus pyogenes M1 GAS;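 note: secreted streptokinase activity via plasminogen activation per viability signal from cell pellet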
# T3 sequence (P10520 whole entry): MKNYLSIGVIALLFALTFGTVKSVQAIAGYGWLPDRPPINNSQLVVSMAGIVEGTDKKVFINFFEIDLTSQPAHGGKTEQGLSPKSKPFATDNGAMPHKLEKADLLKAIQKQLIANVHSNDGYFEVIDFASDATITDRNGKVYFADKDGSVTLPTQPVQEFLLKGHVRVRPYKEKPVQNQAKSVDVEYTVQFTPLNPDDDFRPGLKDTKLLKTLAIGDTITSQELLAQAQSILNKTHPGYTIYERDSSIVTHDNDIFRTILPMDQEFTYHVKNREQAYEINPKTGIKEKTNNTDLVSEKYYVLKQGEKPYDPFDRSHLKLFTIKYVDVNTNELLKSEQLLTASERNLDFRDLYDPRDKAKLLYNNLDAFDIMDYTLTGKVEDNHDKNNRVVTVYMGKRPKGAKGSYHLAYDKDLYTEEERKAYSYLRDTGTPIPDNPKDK
# Streptococcus = experiment: Group A Streptococcus viability loss, dose response, counter-screen for streptokinase expression inhibitor project, luminescence, BacTiterGlo (AID 1915); assay type: functional, organism-based;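 note: potency for reduction of bacterial viability or growth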
# Vero [10] = experiment: cells; assay type: functional, cell-based; conditions: Chlorocebus sabaeus
# Vero [11] = experiment: cells; assay type: functional; conditions: Chlorocebus sabaeus
# A-375 [12] = experiment: A375 melanoma cell viability reduction, dose response, counter-screen for MITF modulator project, cherry-pick samples, set 2 (AID 540335); assay type: functional, cell-based; conditions: Homo sapiens
# [13] = target: T4, Long-chain-fatty-acid--AMP ligase FadD28 (Mycobacterium tuberculosis, UniProt P9WQ59); experiment: Fluorescence polarization aasay to screen for inhibitors that compete for the binding of FadD28 to a bisubstrate Measured in Biochemical System Using Plate Reader - 2147-01_Inhibitor_Dose_CherryPick_Activity.; assay type: functional, Mycobacterium tuberculosis H37Rv
# T4 sequence (P9WQ59 whole entry): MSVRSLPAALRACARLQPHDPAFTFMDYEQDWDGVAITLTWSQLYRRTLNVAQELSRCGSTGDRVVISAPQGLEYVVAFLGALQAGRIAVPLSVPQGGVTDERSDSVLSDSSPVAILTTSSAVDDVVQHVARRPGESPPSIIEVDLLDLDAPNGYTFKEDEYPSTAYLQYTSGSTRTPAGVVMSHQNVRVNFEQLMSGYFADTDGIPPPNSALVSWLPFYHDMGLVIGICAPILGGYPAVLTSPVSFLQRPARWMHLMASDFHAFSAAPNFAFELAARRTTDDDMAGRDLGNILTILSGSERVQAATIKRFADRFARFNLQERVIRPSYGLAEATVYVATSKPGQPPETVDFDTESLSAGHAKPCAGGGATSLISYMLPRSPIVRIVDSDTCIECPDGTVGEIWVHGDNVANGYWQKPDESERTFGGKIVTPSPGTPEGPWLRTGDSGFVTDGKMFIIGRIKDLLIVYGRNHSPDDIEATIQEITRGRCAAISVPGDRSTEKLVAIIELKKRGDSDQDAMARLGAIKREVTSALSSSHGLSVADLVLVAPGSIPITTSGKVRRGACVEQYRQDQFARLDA
# Chain of E3 ubiquitin-protein ligase Mdm2 (Q00987 whole entry): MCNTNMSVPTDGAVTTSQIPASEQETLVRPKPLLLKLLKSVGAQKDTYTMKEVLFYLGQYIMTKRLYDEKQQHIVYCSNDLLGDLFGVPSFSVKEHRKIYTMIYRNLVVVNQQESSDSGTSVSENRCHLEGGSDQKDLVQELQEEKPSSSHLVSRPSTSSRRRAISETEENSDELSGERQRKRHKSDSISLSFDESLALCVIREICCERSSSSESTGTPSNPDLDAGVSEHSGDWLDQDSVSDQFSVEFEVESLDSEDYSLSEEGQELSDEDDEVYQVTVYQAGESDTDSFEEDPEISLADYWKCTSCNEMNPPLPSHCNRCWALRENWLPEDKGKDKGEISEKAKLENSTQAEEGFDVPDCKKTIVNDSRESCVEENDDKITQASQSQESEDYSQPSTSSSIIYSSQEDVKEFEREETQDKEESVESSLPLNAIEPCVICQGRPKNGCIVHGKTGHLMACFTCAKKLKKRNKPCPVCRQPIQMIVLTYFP
compound,measurement,setting,value
O=C(/C=C/c1cccc([N+](=O)[O-])c1)n1cnc2ccccc21,EC50,[1],1.68 µM (active)
same,IC50,[2],> 80 µM (inactive)
same,EC50,[3],1.62 µM (inconclusive)
same,AC50,[4],4.39 µM (active)
same,AC50,A-375 [5],28.2 µM (active)
same,AC50,[6],0.594 µM (active)
same,AC50,[7],> 70 µM (inactive)
same,AC50,[8],14.7 µM (active)
O=C(NCCc1ccccc1)c1nccc2ccccc12,AC50,HeLa,68.6 µM (active)
Cc1nc(N)sc1N=Nc1ccc(F)cc1,EC50,[9],5.74 µM (active)
same,EC50,Streptokinase A,> 150 µM (not active)
same,EC50,Streptococcus,> 150 µM (not active)
same,AC50,HeLa,79.5 µM (active)
COc1ccc(C)c2sc(N(CCCN(C)C)C(=O)c3ccc4c(c3)OCCO4)nc12,IC50,Vero [10],24.2 µM (active)
ClCCn1cnc2c(SCc3ccccc3)ncnc21,IC50,Vero [10],2.03 µM (active)
same,CC50,Vero [11],> 25 µM (active)
O=C(O)c1cc(N/N=C/C(Cl)=C/c2ccccc2)ccc1Cl,AC50,[4],10.4 µM (active)
same,AC50,A-375 [5],> 11 µM (active)
same,AC50,A-375 [12],> 11 µM (active)
same,AC50,[13],13.6 µM (active)
